Measured values taken from US20090081310A1, “METHOD FOR R[…] STRUCTURE CO[…] MOLD” (priority 2004, published 2009).

Key:
mold and mold spores [1] = experiment: Fumigation of an approximately 6000 square feet mold-contaminated structure with chlorine dioxide gas (Example 2); settings: 600 to 1300 ppmv for 12 hours, total CT over 9000 ppmv hours; 70 to 100° F., minimum 65% relative humidity; including mold underneath wallpaper
Protocol: A structure of approximately 6000 square feet consisting of three above surface floors and a basement was located that had developed significant mold growth of a variety of species due to water intrusion and appropriate environmental conditions. […] Mold growth was visible and abundant upon walls, ceilings and other surfaces.
The temperature of the structure was raised and maintained in the range of 70 to 100° F. (21 to 38° C.) and the relative humidity was raised to a minimum of 65%. Chlorine dioxide solution was generated in a closed fluid loop by the process described in U.S. Pat. No. 6,468,479. Chlorine dioxide gas was added to the structure at such a rate as to maintain a concentration of between 600 and 1300 ppmv for a 12 hour period and a total CT of over 9000 ppmv hours of chlorine dioxide.
Chlorine dioxide concentration and purity were monitored by AWWA standard method 6500-ClO2-E in solution phase and a modification therewith to adapt the procedure for gas phase sampling. […] The maximum chlorine dioxide concentration detected exterior to the containment tent was less than 2 parts per billion, well within the maximum exposure guidelines established.
Following treatment mold viability was evaluated in the structure. […]

mold spores = experiment: Mold remediation with chlorine dioxide gas, general finding; settings: time averaged concentration about 500 to 1500 ppmv over a 12 hour period
Protocol: It is an aspect of this invention to minimize the chlorine dioxide concentration and CT to the extent possible to assure decontamination while avoiding damage to building contents such as electronic equipment (e.g., telephone equipment, computers, copiers, and other electronic office equipment), furnishings, and the like. Typical chlorine dioxide concentrations are in the range of 500 to 3000 ppmv, and exposure times are typically about 8 to 12 hours. For mold remediation, a time averaged chlorine dioxide gas concentration in the range of about 500 to 1500 ppmv over a 12 hour period has been found effective for killing mold spores and eliminating allergenic effects.

mold and mold spores [2] = experiment: Fumigation of an approximately 50,000 ft^2 mold-contaminated building with chlorine dioxide gas (Example 1); settings: 2,500 to 3,000 ppmv over 3 hours; approx. 75° F., approx. 75% relative humidity
Protocol: An approximately 50,000 ft^2 mold-contaminated building (1 million cubic feet approximately) was remediated by fumigating the building with chlorine dioxide gas at a concentration within the range of 2,500 to 3,000 ppmv over a period of 3 hours. Temperature was maintained at approximately 75° F. and the relative humidity was maintained at approximately 75% before and during fumigation. Carpets and other porous materials within the contaminated building were not removed prior to fumigation. […] Porous surfaces that were black, grey and green shades prior to treatment were returned to original appearance. The mold mass was also substantially eliminated such that one to four square foot samples were required to collect 0.1 to 0.25 grams of mold residue resulting in a 99+ percent elimination in mold mass. Samples of the treated material were analyzed by PCR (polymerase chain reaction) analysis for DNA. Depending upon the initial concentration levels a 3 to 7 log reduction in DNA was observed.

SMILES: [O][Cl+][O-] [chlorine dioxide gas, chlorine dioxide]
- mold and mold spores rendered non viable (mold and mold spores [1]): ~100%
- killing mold spores and eliminating allergenic effects (mold spores): effective
- elimination in mold mass (mold and mold spores [2]): ≥ 99%
- viable mold and mold spores in the facility (mold and mold spores [2]): substantially eliminated viable mold and mold spores
